Test results: BindingDB's records for PubMed 33032085 (Guangzhou University of Chinese Medicine, 2021)

Assay: Inhibition of influenza A virus neuraminidase using 2-(4-methylumbelliferyl)-a-D-acetylneuraminic acid as substrate incubated for 30 mins by fluorescence based analysis

Q: For C=C1C[C@@H]2[C@@]3(C)CCC(=O)C(C)(C)[C@@H]3C(=O)C[C@@]2(C)[C@@]2(C(=O)OC)C(=O)[C@](C)(O)C(=O)[C@@]12C, which IC50 is on record?
A: 18 nM
